According to patent US20240342292A1, “Compounds for the Degradation of EGFR Kinase” (BeiGene Switzerland GmbH, priority 2021, published 2024):
Several values for one entry are separate records, joined by “and”; a condition that tells them apart may be missing. Equal entries are not always repeated.

How the values were obtained:
Del19/T790M/C797S EGFR = assay: EGFR degradation HTRF assay in H1975-clone #28 (DTC) cells; assay type: cell-based; conditions: H1975 # 28 DTC (Del19/T790M/C797S), 16h treatment; for DC50: HTRF; for Dmax (%): maximum percentage of degradation
In short: (§1)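 Remaining EGFR protein was measured by HTRF (337 nm excitation, 665/620 nm emission) in lysates after overnight antibody incubation. Cells had been exposed for 16 h to an 8-point, 5-fold series starting at 10 uM, and DC50 values were fitted with a Hill equation.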

L858R/T790M/C797S EGFR = target: T1, L858R/T790M/C797S EGFR (Homo sapiens, UniProt P00533, C797S/L858R/T790M); assay: EGFR degradation HTRF assay in H1975-clone #25 (LTC) cells; assay type: cell-based; conditions: 16h treatment; for DC50: HTRF; for Dmax: NCI-H1975, H1975 # 25-LTC (L858R/T790M/C797S)
T1 construct: expressed in transfected cells; host or cells: H1975 clone #25 (lentiviral over-expression, endogenous EGFR knocked out by sgRNA)
T1 sequence (P00533 25-1210 T790M/C797S/L858R): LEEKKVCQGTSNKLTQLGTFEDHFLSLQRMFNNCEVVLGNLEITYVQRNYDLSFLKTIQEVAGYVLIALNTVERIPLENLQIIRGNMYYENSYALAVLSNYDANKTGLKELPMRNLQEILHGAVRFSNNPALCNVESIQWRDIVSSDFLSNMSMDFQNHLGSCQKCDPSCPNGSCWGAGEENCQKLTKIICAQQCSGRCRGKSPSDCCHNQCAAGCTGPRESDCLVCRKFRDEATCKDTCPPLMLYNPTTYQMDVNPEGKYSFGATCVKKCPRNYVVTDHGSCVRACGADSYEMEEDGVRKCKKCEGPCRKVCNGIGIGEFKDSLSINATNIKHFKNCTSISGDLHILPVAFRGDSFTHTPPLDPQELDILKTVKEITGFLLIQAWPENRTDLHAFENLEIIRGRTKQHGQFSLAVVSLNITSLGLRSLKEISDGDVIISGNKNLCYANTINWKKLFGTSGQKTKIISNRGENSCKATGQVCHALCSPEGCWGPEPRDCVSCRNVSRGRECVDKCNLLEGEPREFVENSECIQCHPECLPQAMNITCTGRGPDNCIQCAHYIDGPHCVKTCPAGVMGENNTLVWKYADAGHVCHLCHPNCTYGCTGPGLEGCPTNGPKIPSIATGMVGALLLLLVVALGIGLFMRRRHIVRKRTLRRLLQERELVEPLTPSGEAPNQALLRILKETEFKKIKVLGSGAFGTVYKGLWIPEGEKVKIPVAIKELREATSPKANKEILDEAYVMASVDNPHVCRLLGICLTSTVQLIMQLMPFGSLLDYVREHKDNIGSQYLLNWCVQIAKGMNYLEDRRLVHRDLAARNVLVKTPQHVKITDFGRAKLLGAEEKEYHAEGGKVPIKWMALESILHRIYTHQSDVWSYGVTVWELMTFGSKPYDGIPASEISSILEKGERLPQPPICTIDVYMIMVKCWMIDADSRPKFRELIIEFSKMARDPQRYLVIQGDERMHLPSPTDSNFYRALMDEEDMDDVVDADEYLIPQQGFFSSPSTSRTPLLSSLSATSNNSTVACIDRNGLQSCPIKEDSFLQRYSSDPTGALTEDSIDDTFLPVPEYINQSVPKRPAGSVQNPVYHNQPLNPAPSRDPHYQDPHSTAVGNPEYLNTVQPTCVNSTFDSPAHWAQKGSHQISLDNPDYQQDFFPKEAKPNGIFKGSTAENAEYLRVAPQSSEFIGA
In short: as §1

[1] = H1975 # 25-LTC (L858R/T790M/C797S)
[2] = maximum percentage of degradation

| DC50 (Del19/T790M/C797S EGFR) | DC50 (L858R/T790M/C797S EGFR; [1]) | Dmax (L858R/T790M/C797S EGFR; [2]) | Dmax (%) (L858R/T790M/C797S EGFR; H1975 # 25-LTC (L858R/T790M/C797S), maximum percentage of degradation) | SMILES | Dmax (%) (Del19/T790M/C797S EGFR) |
| --- | --- | --- | --- | --- | --- |
| 0.671 nM | 0.865 nM | 80.3% |  | Cc1cc2cc(n1)-c1cnn(C)c1OCCC[C@@H](C)CN1/C(=N/C2=O)Nc2ccc(C(=O)N(C)CCCCc3cc(F)c([C@H]4CCC(=O)NC4=O)c(F)c3)cc21 [Example 339, (R,E)-N-(4-(4-((R)-2,6-dioxopiperidin-3-yl)-3,5-difluorophenyl)butyl)-N,1^1,2^6,7-tetramethyl-3-oxo-5^2,5^3-dihydro-1^1H,5^1H-11-oxa-4-aza-5(2,1)-benzo[d]imidazola-2(2,4)-pyridina-1(4,5)-pyrazolacycloundecaphane-5^6-carboxamide] | 70.76% |
| 0.621 nM | 0.54 nM | 86.8% |  | Cc1cc2cc(n1)-c1cnn(C)c1OCCC[C@@H](C)CN1/C(=N/C2=O)Nc2ccc(C(=O)N3CCN(CCCc4cc(F)c([C@H]5CCC(=O)NC5=O)c(F)c4)CC3)cc21 [Example 341, (R)-3-(2,6-difluoro-4-(3-(4-((R,E)-1^1,2^6,7-trimethyl-3-oxo-5^2,5^3-dihydro-1^1H,5^1H-11-oxa-4-aza-5(2,1)-benzo[d]imidazola-2(2,4)-pyridina-1(4,5)-pyrazolacycloundecaphane-5^6-carbonyl)piperazin-1-yl)propyl)phenyl)piperidine-2,6-dione] | 79.84% |
| 0.607 nM | 0.62 nM | 90.8% |  | Cc1cc2cc(n1)-c1cnn(C)c1OCCC[C@@H](C)CN1/C(=N/C2=O)Nc2ccc(C(=O)N[C@H]3CCN(CCc4cc(F)c([C@H]5CCC(=O)NC5=O)c(F)c4)C[C@@H]3F)cc21 [Example 342, (R,E)-N—((3S,4S)-1-(4-((R)-2,6-dioxopiperidin-3-yl)-3,5-difluorophenethyl)-3-fluoropiperidin-4-yl)-1^1,2^6,7-trimethyl-3-oxo-5^2,5^3-dihydro-1^1H,5^1H-11-oxa-4-aza-5(2,1)-benzo[d]imidazola-2(2,4)-pyridina-1(4,5)-pyrazolacycloundecaphane-5^6-carboxamide] | 77.52% |
| 0.609 nM | 0.599 nM | 90.5% |  | Cc1cc2cc(n1)-c1cnn(C)c1OCCC[C@@H](C)CN1/C(=N/C2=O)Nc2ccc(C(=O)N[C@H]3CCN(CCc4cc(F)c([C@H]5CCC(=O)NC5=O)c(F)c4)C[C@H]3F)cc21 [Example 343, (R,E)-N—((3R,4S)-1-(4-((R)-2,6-dioxopiperidin-3-yl)-3,5-difluorophenethyl)-3-fluoropiperidin-4-yl)-1^1,2^6,7-trimethyl-3-oxo-5^2,5^3-dihydro-1^1H,5^1H-11-oxa-4-aza-5(2,1)-benzo[d]imidazola-2(2,4)-pyridina-1(4,5)-pyrazolacycloundecaphane-5^6-carboxamide] | 76.11% |
| 0.62 nM | 0.386 nM | 92.8% |  | Cc1cc2cc(n1)-c1cnn(C)c1OCCC[C@@H](C)CN1/C(=N/C2=O)Nc2ccc(C(=O)N(C)[C@@H]3CCN(CCc4cc(F)c([C@H]5CCC(=O)NC5=O)c(F)c4)C[C@@H]3F)cc21 [Example 344, (R,E)-N—((3S,4R)-1-(4-((R)-2,6-dioxopiperidin-3-yl)-3,5-difluorophenethyl)-3-fluoropiperidin-4-yl)-N,1^1,2^6,7-tetramethyl-3-oxo-5^2,5^3-dihydro-1^1H,5^1H-11-oxa-4-aza-5(2,1)-benzo[d]imidazola-2(2,4)-pyridina-1(4,5)-pyrazolacycloundecaphane-5^6-carboxamide] | 83.22% |
| 0.662 nM and 0.7 nM | 0.634 nM and 0.6 nM | 92.5% | 92.5% | Cc1cc2cc(n1)-c1cnn(C)c1OCCC[C@@H](C)CN1/C(=N/C2=O)Nc2ccc(C(=O)N[C@@H]3CCN(CCc4cc(F)c([C@H]5CCC(=O)NC5=O)c(F)c4)C[C@H]3F)cc21 [Example 345, (R,E)-N—((3R,4R)-1-(4-((R)-2,6-dioxopiperidin-3-yl)-3,5-difluorophenethyl)-3-fluoropiperidin-4-yl)-1^1,2^6,7-trimethyl-3-oxo-5^2,5^3-dihydro-1^1H,5^1H-11-oxa-4-aza-5(2,1)-benzo[d]imidazola-2(2,4)-pyridina-1(4,5)-pyrazolacycloundecaphane-5^6-carboxamide] | 74.46% and 74.5% |
| 0.411 nM | 0.526 nM | 84.8% |  | Cc1cc2cc(n1)-c1cnn(C)c1OCCC[C@@H](C)CN1/C(=N/C2=O)Nc2ccc(C(=O)N(C)[C@@H]3CCN(CCc4cc(F)c([C@H]5CCC(=O)NC5=O)c(F)c4)C[C@H]3F)cc21 [Example 346, (R,E)-N—((3R,4R)-1-(4-((R)-2,6-dioxopiperidin-3-yl)-3,5-difluorophenethyl)-3-fluoropiperidin-4-yl)-N,1^1,2^6,7-tetramethyl-3-oxo-5^2,5^3-dihydro-1^1H,5^1H-11-oxa-4-aza-5(2,1)-benzo[d]imidazola-2(2,4)-pyridina-1(4,5)-pyrazolacycloundecaphane-5^6-carboxamide] | 78.78% |
| 0.662 nM | 0.614 nM | 90.4% |  | Cc1cc2cc(n1)-c1cnn(C)c1OCCC[C@@H](C)CN1/C(=N/C2=O)Nc2ccc(C(=O)N(C)[C@@H]3CCN(CCNc4cc(F)c([C@H]5CCC(=O)NC5=O)c(F)c4)C[C@@H]3F)cc21 [Example 350, (R,E)-N—((3S,4R)-1-(2-((4-((R)-2,6-dioxopiperidin-3-yl)-3,5-difluorophenyl)amino)ethyl)-3-fluoropiperidin-4-yl)-N,1^1,2^6,7-tetramethyl-3-oxo-5^2,5^3-dihydro-1^1H,5^1H-11-oxa-4-aza-5(2,1)-benzo[d]imidazola-2(2,4)-pyridina-1(4,5)-pyrazolacycloundecaphane-5^6-carboxamide] | 86.74% |
| 0.561 nM | 0.614 nM | 91.7% |  | Cc1cc2cc(n1)-c1cnn(C)c1OCCC[C@@H](C)CN1/C(=N/C2=O)Nc2ccc(C(=O)N(C)[C@H]3CCN(CCNc4cc(F)c([C@H]5CCC(=O)NC5=O)c(F)c4)C[C@H]3F)cc21 [Example 351, (R,E)-N—((3R,4S)-1-(2-((4-((R)-2,6-dioxopiperidin-3-yl)-3,5-difluorophenyl)amino)ethyl)-3-fluoropiperidin-4-yl)-N,1^1,2^6,7-tetramethyl-3-oxo-5^2,5^3-dihydro-1^1H,5^1H-11-oxa-4-aza-5(2,1)-benzo[d]imidazola-2(2,4)-pyridina-1(4,5)-pyrazolacycloundecaphane-5^6-carboxamide] | 83.91% |
| 0.814 nM | 0.847 nM | 85.6% |  | Cc1cc2cc(n1)-c1cnn(C)c1OCCC[C@@H](C)CN1/C(=N/C2=O)Nc2ccc(C(=O)N(C)[C@H]3CCN(CCNc4cc(F)c([C@H]5CCC(=O)NC5=O)c(F)c4)C[C@@H]3F)cc21 [Example 352, (R,E)-N—((3S,4S)-1-(2-((4-((R)-2,6-dioxopiperidin-3-yl)-3,5-difluorophenyl)amino)ethyl)-3-fluoropiperidin-4-yl)-N,1^1,2^6,7-tetramethyl-3-oxo-5^2,5^3-dihydro-1^1H,5^1H-11-oxa-4-aza-5(2,1)-benzo[d]imidazola-2(2,4)-pyridina-1(4,5)-pyrazolacycloundecaphane-5^6-carboxamide] | 79.43% |
| 0.501 nM | 0.59 nM | 89.3% |  | Cc1cc2cc(n1)-c1cnn(C)c1OCCC[C@@H](C)CN1/C(=N/C2=O)Nc2ccc(N3CC(C(=O)N4CCN(c5cc(F)c([C@H]6CCC(=O)NC6=O)c(F)c5)CC4)C3)cc21 [Example 354, (R)-3-(2,6-difluoro-4-(4-(1-((R,E)-1^1,2^6,7-trimethyl-3-oxo-5^2,5^3-dihydro-1^1H,5^1H-11-oxa-4-aza-5(2,1)-benzo[d]imidazola-2(2,4)-pyridina-1(4,5)-pyrazolacycloundecaphane-5^6-yl)azetidine-3-carbonyl)piperazin-1-yl)phenyl)piperidine-2,6-dione] | 72.74% |
| 0.903 nM | 0.824 nM | 87.6% |  | COC[C@@H]1CN(c2cc(F)c([C@H]3CCC(=O)NC3=O)c(F)c2)CCN1C(=O)C1CCN(c2ccc3c(c2)N2C[C@H](C)CCCOc4c(cnn4C)-c4cc(cc(C)n4)C(=O)/N=C/2N3)CC1 [Example 357, (R)-3-(2,6-difluoro-4-((S)-3-(methoxymethyl)-4-(1-((R,E)-1^1,2^6,7-trimethyl-3-oxo-5^2,5^3-dihydro-1^1H,5^1H-11-oxa-4-aza-5(2,1)-benzo[d]imidazola-2(2,4)-pyridina-1(4,5)-pyrazolacycloundecaphane-5^6-yl)piperidine-4-carbonyl)piperazin-1-yl)phenyl)piperidine-2,6-dione] | 73.73% |
| 1.3 nM | 0.622 nM | 89.6% |  | Cc1cc2cc(n1)-c1cnn(C)c1OCCC[C@@H](C)CN1/C(=N/C2=O)Nc2ccc(N3CC[C@H](C(=O)N4CCN(c5cc(F)c([C@H]6CCC(=O)NC6=O)c(F)c5)CC4)C3)cc21 [Example 358, (R)-3-(2,6-difluoro-4-(4-((S)-1-((R,E)-1^1,2^4,7-trimethyl-3-oxo-5^2,5^3-dihydro-1^1H,5^1H-11-oxa-4-aza-5(2,1)-benzo[d]imidazola-2(2,4)-pyridina-1(4,5)-pyrazolacycloundecaphane-5^6-yl)pyrrolidine-3-carbonyl)piperazin-1-yl)phenyl)piperidine-2,6-dione] | 75.67% |
